{
  "source": "patent US8053452B2",
  "about": "“Substituted isoxazoline or enone oxime compound, and pest control agent” (Nissan Chemical Industries, Ltd., priority 2007, dated 2011)",
  "key": {"[1]": {"test_system": "Spodoptera litura", "experiment": "Mortality test for Spodoptera litura", "format": "in vivo", "settings": "144 h", "procedure": "(§1) A 10% emulsifiable concentrate of the compound of the present invention (depending on the type of the compound, a 10% wettable powder was subjected to the test) was diluted with water containing a spreader to prepare a drug solution in a concentration of 10 ppm. In this drug solution, a leaf of cabbage was immersed for about 10 seconds and was air-dried and then put into a petri dish. In the petri dish, five 2 instar larvae of Spodoptera litura per petri dish were released and the petri dish was capped and stored in a thermostatic room of 25° C. The number of killed larvae after 6 days was counted and the mortality was calculated from the same calculation formula as that in Test Example 1. Here, the test was carried out with two replications."}, "[2]": {"test_system": "Plutella xylostella", "experiment": "Mortality test for Plutella xylostella", "format": "in vivo", "settings": "144 h", "procedure": "as §1, with “Plutella xylostella” for “Spodoptera litura”, “following” for “same”, “formula: Mortality(%)=(number of killed larvae/number of released larvae)×100.” for “formula as that in Test Example 1.”"}, "[3]": {"test_system": "Liriomyza trifolii", "experiment": "Mortality test for Liriomyza trifolii", "format": "in vivo", "settings": "144 h, drug solution 500 ppm, kidney bean leaf with eggs immersed, killed larvae after 6 days", "procedure": "as §1, with “of 500” for “of 10”, “of kidney bean on which Liriomyza trifolii laid eggs (10 eggs/leaf) and which was cut out to a diameter of 7 cm” for “of cabbage”, “then laid on” for “then put into”, “a wet filtration paper laid in a styrol cup having an inner diameter” for “a petri dish. In the petri dish, five 2 instar larvae”, “of 7 cm. The styrol cup” for “of Spodoptera litura per petri dish were released and the petri dish”"}, "[4]": {"test_system": "Eysarcoris lewisi", "experiment": "Mortality test for Eysarcoris lewisi", "format": "in vivo", "settings": "48 h, drug solution 500 ppm, rice leaf sheath immersed, 1 instar larvae, after 2 days", "procedure": "(§2) A 10% emulsifiable concentrate of the compound of the present invention (depending on the type of the compound, a 10% wettable powder was subjected to the test) was diluted with water containing a spreader to prepare a drug solution in a concentration of 500 ppm. In this drug solution, a leaf sheath of rice was immersed for about 10 seconds and was air-dried and then put into a test tube. In the test tube, five 1 instar larvae of Eysarcoris lewisi per test tube were released and the test tube was capped with a sponge and stored in a thermostatic room of 25° C. The number of killed larvae after 2 days was counted and the mortality was calculated from the same calculation formula as that in Test Example 1. Here, the test was carried out with two replications."}, "[5]": {"test_system": "Nilaparvata lugens", "experiment": "Mortality test for Nilaparvata lugens", "format": "in vivo", "settings": "144 h, drug solution 500 ppm, rice leaf sheath immersed, 2 instar larvae, after 6 days", "procedure": "as §2, with “five 2” for “five 1”, “of Nilaparvata lugens” for “of Eysarcoris lewisi”, “after 6” for “after 2”"}, "[6]": {"test_system": "Aulacophora femoralis", "experiment": "Mortality test for Aulacophora femoralis", "format": "in vivo", "settings": "144 h", "procedure": "as §1, with “of 500” for “of 10”, “of cucumber” for “of cabbage”, “of Aulacophora femoralis” for “of Spodoptera litura”"}, "[7]": {"test_system": "Homona magnanima", "experiment": "Mortality test for Homona magnanima", "format": "in vivo", "settings": "144 h, drug solution 100 ppm, cabbage leaf immersed, 2 instar larvae, after 6 days", "procedure": "as §1, with “of 100” for “of 10”, “of Homona magnanima” for “of Spodoptera litura”"}, "[8]": {"test_system": "Helicoverpa armigera", "experiment": "Mortality test for Helicoverpa armigera", "format": "in vivo", "settings": "144 h, drug solution 100 ppm, cabbage leaf immersed, 2 instar larva, after 6 days", "procedure": "as §1, with “of 100” for “of 10”, “dish, one” for “dish, five”, “instar larva” for “instar larvae”, “of Helicoverpa armigera” for “of Spodoptera litura”, “dish was” for “dish were”, “with 12” for “with two”"}, "[9]": {"settings": "drug solution 100 ppm (mark *), cabbage leaf immersed, 2 instar larvae, after 6 days, read-out: mortality"}},
  "note": "Read-outs that look alike come from different tables or passages of the source.",
  "data": [
    {"smiles": "NC(=O)c1ccc(C2=NOC(c3cc(C(F)(F)F)cc(C(F)(F)F)c3)(C(F)(F)F)C2Br)cc1", "note": "(stereo not shown)", "values": [
      {"measurement": "melting point", "value": "190 to 193", "unit": "°C"}
    ]},
    {"smiles": "Cc1cc(C2=NOC(c3cc(Cl)cc(Cl)c3)(C(F)(F)F)C2Cl)ccc1C(=O)NCC(F)(F)F", "note": "(stereo not shown) [1-002, 4-(4-chloro-5-(3,5-dichlorophenyl)-5-trifluoromethyl-4,5-dihydroisoxazole-3-yl)-2-methyl-N-(2,2,2-trifluoroethyl)benzoic acid amide]", "values": [
      {"measurement": "mortality at 10 ppm", "setting": "[1]; in Brassica oleracea", "value": "≥ 80", "unit": "%"},
      {"measurement": "mortality at 10 ppm", "setting": "[2]; in Brassica oleracea", "value": "≥ 80", "unit": "%"}
    ]},
    {"smiles": "Cc1cc(C2=NOC(c3cc(Cl)cc(Cl)c3)(C(F)(F)F)C2Br)ccc1C(=O)NCC(F)(F)F", "note": "(stereo not shown) [1-003, 4-(4-bromo-5-(3,5-dichlorophenyl)-5-trifluoromethyl-4,5-dihydroisoxazole-3-yl)-2-methyl-N-(2,2,2-trifluoroethyl)benzoic acid amide]", "values": [
      {"measurement": "mortality at 500 ppm", "setting": "[3]", "value": "≥ 80", "unit": "%"},
      {"measurement": "mortality at 500 ppm", "setting": "[4]", "value": "≥ 80", "unit": "%"},
      {"measurement": "mortality at 100 ppm", "setting": "[1]; in Brassica oleracea", "value": "≥ 80", "unit": "%"},
      {"measurement": "mortality at 500 ppm", "setting": "[5]", "value": "≥ 80", "unit": "%"},
      {"measurement": "mortality at 100 ppm", "setting": "[2]; in Brassica oleracea", "value": "≥ 80", "unit": "%"},
      {"measurement": "mortality at 500 ppm", "setting": "[6]; in Cucumis sativus", "value": "≥ 80", "unit": "%"}
    ]},
    {"smiles": "Cc1cc(C2=NOC(c3cc(Cl)cc(Cl)c3)(C(F)(F)F)C2C)ccc1C(=O)NCC(F)(F)F", "note": "(stereo not shown) [1-004, 4-(5-(3,5-dichlorophenyl)-4-methyl-5-trifluoromethyl-4,5-dihydroisoxazole-3-yl)-2-methyl-N-(2,2,2-trifluoroethyl)benzoic acid amide]", "values": [
      {"measurement": "mortality at 500 ppm", "setting": "[3]", "value": "≥ 80", "unit": "%"},
      {"measurement": "mortality at 100 ppm", "setting": "[7]", "value": "≥ 80", "unit": "%"},
      {"measurement": "mortality at 500 ppm", "setting": "[4]", "value": "≥ 80", "unit": "%"},
      {"measurement": "mortality at 100 ppm", "setting": "[1]; in Brassica oleracea", "value": "≥ 80", "unit": "%"},
      {"measurement": "mortality at 100 ppm", "setting": "[2]; in Brassica oleracea", "value": "≥ 80", "unit": "%"},
      {"measurement": "mortality at 500 ppm", "setting": "[6]; in Cucumis sativus", "value": "≥ 80", "unit": "%"}
    ]},
    {"smiles": "CSC1C(c2ccc(C(=O)NCC(F)(F)F)c(C)c2)=NOC1(c1cc(Cl)cc(Cl)c1)C(F)(F)F", "note": "(stereo not shown) [1-005, 4-(5-(3,5-dichlorophenyl)-4-methylthio-5-trifluoromethyl-4,5-dihydroisoxazole-3-yl)-2-methyl-N-(2,2,2-trifluoroethyl)benzoic acid amide]", "values": [
      {"measurement": "mortality at 100 ppm", "setting": "[1]; in Brassica oleracea", "value": "≥ 80", "unit": "%"},
      {"measurement": "mortality at 100 ppm", "setting": "[2]; in Brassica oleracea", "value": "≥ 80", "unit": "%"}
    ]},
    {"smiles": "CON=CNC(=O)c1ccc(C2=NOC(c3cc(C(F)(F)F)cc(C(F)(F)F)c3)(C(F)(F)F)C2Br)cc1", "note": "(stereo not shown) [1-011, 4-(4-bromo-5-(3,5-bis(trifluoromethyl)phenyl)-5-trifluoromethyl-4,5-dihydroisoxazole-3-yl)-N-(methoxyiminomethyl)benzoic acid amide]", "values": [
      {"measurement": "mortality at 100 ppm", "setting": "[1]; in Brassica oleracea", "value": "≥ 80", "unit": "%"},
      {"measurement": "mortality at 500 ppm", "setting": "[5]", "value": "≥ 80", "unit": "%"},
      {"measurement": "mortality at 100 ppm", "setting": "[2]; in Brassica oleracea", "value": "≥ 80", "unit": "%"}
    ]},
    {"smiles": "O=C(NCc1ccc(C2=NOC(c3cc(Cl)cc(Cl)c3)(C(F)(F)F)C2Br)cc1Br)C1CC1", "note": "(stereo not shown) [2-002, N-(2-bromo-4-(4-bromo-5-(3,5-dichlorophenyl)-5-trifluoromethyl-4,5-dihydroisoxazole-3-yl)phenylmethyl)cyclopropylcarboxamide]", "values": [
      {"measurement": "mortality at 500 ppm", "setting": "[5]", "value": "≥ 80", "unit": "%"}
    ]},
    {"smiles": "CC1C(c2ccc(CN(C)C(=O)C3CC3)c(Br)c2)=NOC1(c1cc(Cl)cc(Cl)c1)C(F)(F)F", "note": "(stereo not shown) [2-005, N-(2-bromo-4-(5-(3,5-dichlorophenyl)-4-methyl-5-trifluoromethyl-4,5-dihydroisoxazole-3-yl)phenylmethyl)-N-(methyl)cyclopropanecarboxamide]", "values": [
      {"measurement": "mortality at 500 ppm", "setting": "[1]; in Brassica oleracea", "value": "≥ 80", "unit": "%"},
      {"measurement": "mortality at 500 ppm", "setting": "[2]; in Brassica oleracea", "value": "≥ 80", "unit": "%"}
    ]},
    {"smiles": "CSc1ccc(C2=NOC(c3cc(Cl)cc(Cl)c3)(C(F)(F)F)C2Br)cc1", "note": "(stereo not shown) [4-002, 4-bromo-5-(3,5-dichlorophenyl)-3-(4-(methylthio)phenyl)-5-trifluoromethyl-4,5-dihydroisoxazole]", "values": [
      {"measurement": "mortality at 100 ppm", "setting": "[8]", "value": "≥ 80", "unit": "%"},
      {"measurement": "mortality at 100 ppm", "setting": "[1]; in Brassica oleracea", "value": "≥ 80", "unit": "%"},
      {"measurement": "mortality at 500 ppm", "setting": "[5]", "value": "≥ 80", "unit": "%"},
      {"measurement": "mortality at 100 ppm", "setting": "[2]; in Brassica oleracea", "value": "≥ 80", "unit": "%"}
    ]},
    {"smiles": "Cc1cc(C(/C=C(/c2cc(Cl)cc(Cl)c2)C(F)(F)F)=NO)ccc1C(=O)NCC(F)(F)F", "note": "[5-001, 4-((2Z)-3-(3,5-dichlorophenyl)-4,4,4-trifluoro-1-(hydroxyimino)-2-butenyl)-2-methyl-N-(2,2,2-trifluoroethyl)benzoic acid amide]", "values": [
      {"measurement": "mortality at 100 ppm", "setting": "[1]; [9]", "value": "≥ 80", "unit": "%"},
      {"measurement": "mortality at 100 ppm", "setting": "[2]; [9]", "value": "≥ 80", "unit": "%"}
    ]},
    {"smiles": "Cc1cc(C(/C=C(\\c2cc(Cl)cc(Cl)c2)C(F)(F)F)=NO)ccc1C(=O)NCC(F)(F)F", "note": "[6-001, 4-((2E)-3-(3,5-dichlorophenyl)-4,4,4-trifluoro-1-(hydroxyimino)-2-butenyl)-2-methyl-N-(2,2,2-trifluoroethyl)benzoic acid amide]", "values": [
      {"measurement": "mortality at 500 ppm", "setting": "[2]; drug solution 500 ppm (mark **), cabbage leaf immersed, 2 instar larvae, after 6 days, read-out: mortality", "value": "≥ 80", "unit": "%"},
      {"measurement": "mortality at 500 ppm", "setting": "[6]; drug solution 500 ppm, cucumber leaf immersed, 2 instar larvae, after 6 days, read-out: mortality", "value": "≥ 80", "unit": "%"}
    ]}
  ]
}
